Where a name gives a salt, the structure may show the parent alone. Read-outs that look alike come from different tables or passages of the source.
How the values were obtained:
[1] = target: T1, human 5-HT1A serotonergic receptor (Homo sapiens, UniProt P08908); assay: Radioreceptor binding to recombinant human 5-HT1A receptors ([3H]8-OH-DPAT, HeLa cell membranes)
T1 construct: expressed in transfected cells; host or cells: HeLa (human), stably transfected; cell membranes
T1 sequence (P08908 1-422): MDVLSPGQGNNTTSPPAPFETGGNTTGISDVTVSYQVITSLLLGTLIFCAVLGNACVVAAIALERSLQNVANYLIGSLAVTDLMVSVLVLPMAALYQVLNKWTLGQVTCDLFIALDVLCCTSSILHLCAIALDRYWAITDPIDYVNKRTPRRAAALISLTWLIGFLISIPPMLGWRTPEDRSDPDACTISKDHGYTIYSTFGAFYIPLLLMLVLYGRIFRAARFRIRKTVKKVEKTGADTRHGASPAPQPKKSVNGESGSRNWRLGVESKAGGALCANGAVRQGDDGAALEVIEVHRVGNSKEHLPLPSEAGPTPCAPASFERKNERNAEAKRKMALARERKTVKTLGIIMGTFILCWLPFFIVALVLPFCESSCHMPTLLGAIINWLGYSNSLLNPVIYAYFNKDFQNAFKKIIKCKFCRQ
Description: Genomic clone G-21 coding for the human 5-HT1A serotonergic receptor is stably transfected in a human cell line (HeLa). HeLa cells were grown as monolayers in Dulbecco's modified Eagle's medium (DMEM), supplemented with 10% fetal calf serum and gentamicin ([…]), 5% CO2 at 37° C. Cells were detached from the growth flask at 95% confluence by a cell scraper and were lysed in ice-cold 5 mM Tris and 5 mM EDTA buffer (pH 7.4). Homogenates were centrifuged at 40000×g×20 min and pellets were resuspended in a small volume of ice-cold 5 mM Tris and 5 mM EDTA buffer (pH 7.4) and immediately frozen and stored at −70° C. until use. On the day of experiment, cell membranes were resuspended in binding buffer: 50 mM Tris HCl (pH 7.4), 2.5 mM MgCl2, 10 μM pargyline (Fargin et al., Nature 335, 358-360, 1988). Membranes were incubated in a final volume of 1 ml for 30 min at 30° C. with 0.2-1 nM [^3H]8-OH-DPAT, in absence or presence of competing drugs; non-specific binding was determined in the presence of 10 μM 5-HT. The incubation was stopped by addition of ice-cold Tris-HCl buffer and rapid filtration through 0.2% polyethyleneimine-pretreated Whatman GF/B or Schleieher & Schuell GF52 filters.
(§1) The inhibition of specific binding of the radioligands by the tested drugs was analyzed to estimate the IC50 value by using the non-linear curve-fitting program Allfit (De Lean et al., Am. J. Physiol. 235, E97-E102, 1978). The IC50 value is converted to an affinity constant (Ki) by the equation of Cheng & Prusoff (Cheng, Y. C.; Prusoff, W. H. Biochem. Pharmacol. 22, 3099-3108, 1973).

[2] = target: T2, 5-HT2A serotonergic receptors (Rattus norvegicus, UniProt P14842); assay: Radioreceptor binding to native 5-HT2A serotonergic receptors ([3H]ketanserin, rat cerebral cortex membranes)
T2 construct: from tissue; host or cells: cerebral cortex of male Sprague Dawley rats, membranes
Description: Binding studies on native 5-HT2A serotonergic receptors (Craig A. and Kenneth J., Life Sci. 38, 117-127, 1986) were carried out in membranes of rat cerebral cortex. Male Sprague Dawley rats (200-300 g, S D Harlan/Nossan, Italy) were killed by cervical dislocation and cerebral cortexes were excised and immediately frozen in liquid nitrogen and stored at −70° C. until use. Tissues were homogenized (2×20 sec) in 50 volumes of cold 50 mM Tris-HCl buffer pH 7.4, using a Polytron homogenizer (speed 7). Homogenates were centrifuged at 49000×g for 10 min, resuspended in 50 volumes of the same buffer, incubated at 37° C. for 15 min and centrifuged and resuspended twice more. The final pellets were suspended in 100 volumes of 50 mM Tris-HCl buffer pH 7.7. Membranes were incubated in a final volume of 1 ml for 20 min at 37° C. with 0.7-1.3 nM [^3H]ketanserin (5-HT2A receptors), in absence or presence of competing drugs. Non-specific binding was determined in the presence of 2 μM ketanserin. The incubation was stopped by addition of ice-cold 50 mM Tris-HCl buffer and rapid filtration through 0.2% polyethyleneimine pretreated Whatman GF/B or Schleicher & Schuell GF52 filters. The filters are then washed with ice-cold buffer and the radioactivity retained on the filters was counted by liquid scintillation spectrometry.
as §1

[3] = target: α1 adrenergic receptors; assay: Radioreceptor binding to native α1 adrenergic receptors ([3H]prazosin, rat cerebral cortex membranes)
Description: Binding studies on native α1 adrenergic receptors were carried out in membranes of rat cerebral cortex. Male Sprague Dawley rats (200-300 g, Charles River, Italy) were killed by cervical dislocation and cerebral cortexes were dissected and immediately frozen and stored at −70° C. until use. Tissue was homogenized (2×20 sec) in 50 volumes of cold 50 mM Tris-HCl buffer pH 7.4, using a Polytron homogenizer (speed 7). Homogenates were centrifuged at 48000×g for 10 min, resuspended in 50 volumes of the same buffer, incubated at 37° C. for 15 min and centrifuged and resuspended twice more. The final pellets were suspended in 100 volumes of 50 mM Tris-HCl buffer pH 7.4, containing 10 μM pargyline and 0.1% ascorbic acid. Membranes were incubated in a final volume of 1 ml for 30 min at 25° C. with 0.1-0.5 nM [^3H]prazosin, in the absence or presence of competing drugs; non-specific binding was determined in the presence of 10 μM phentolamine.
The incubation was stopped by addition of ice-cold 50 mM Tris-HCl buffer and rapid filtration through 0.2% polyethyleneimine-pretreated Whatman GF/B or Schleicher & Schuell GF52 filters. The filters were then washed with ice-cold buffer and the radioactivity retained on the filters counted by liquid scintillation spectrometry.
as §1

[4] = tested on: rhythmic bladder voiding contractions; assay: Volume-induced rhythmic bladder voiding contractions in anaesthetized rats; assay type: in vivo, rat; conditions: for ED10min: extrapolated dose inducing 10 min of disappearance of the contractions; for ED50: Rattus norvegicus
Description: Female Sprague Dawley rats weighing 225-275 g (Crl: CDo BR, Charles River Italia) were used. The animals were housed with free access to food and water and were maintained on a forced 12 h alternating light-dark cycle at 22-24° C. for at least one week, except during the experiment. The activity on the rhythmic bladder voiding contractions was evaluated according to the method of Dray (J. Pharmacol. Methods, 13:157, 1985), with some modifications as in Guarneri (Pharmacol. Res., 27:173, 1993). Briefly, rats were anesthetized by subcutaneous injection of 1.25 g/kg (5 ml/kg) urethane, after which the urinary bladder was catheterized via the urethra using PE 50 polyethylene tubing filled with physiological saline. The catheter was tied in place with a ligature around the external urethral orifice and was connected with conventional pressure transducers (Statham P23 ID/P23 XL). […] The bladder was then filled via the recording catheter by incremental volumes of warm (37° C.) saline until reflex bladder voiding contractions occurred (usually 0.8-1.5 ml). For intravenous (i.v.) injection of bioactive compounds, PE 50 polyethylene tubing filled with physiological saline was inserted into the jugular vein.
From the cystometrogram, the number of contractions recorded 15 min before (basal values) and after treatment, as well as the mean amplitude of these contractions (mean height of the peaks in mm Hg) was evaluated.
Since most compounds produced an effect that was relatively rapid in onset and led to a complete cessation of bladder contractions, bioactivity was conveniently estimated by measuring the duration of bladder quiescence (i.e., the duration of time during which no contractions occurred). Moreover, the number of animals tested showing a reduction in the number of contractions >30% of that observed in the basal period, was recorded. […] Also computed in this manner were extrapolated doses which induced a reduction of the number of contractions of greater than 30% in 50% of treated rats (ED50, frequency) by the method of Bliss (Bliss C. I., Quart. J. Pharm. Pharmacol. 11, 192-216, 1938). After the suppressive effects of drug injection wore off, the height of the contractile peaks was compared with the height of the peaks previously recorded after the control intravenous administration of vehicle. The potency of the tested compounds (ED50 value, the extrapolated doses inducing a 30% reduction of amplitude of the contractions in 50% of treated rats) was evaluated on a quantal basis by the method of Bliss (Bliss C. I., Quart. J. Pharm. Pharmacol. 11, 192-216, 1938).

[5] = recombinant human receptor in HeLa membranes, [3H]8-OH-DPAT, read-out: Ki 5-HT1A
[6] = rat cerebral cortex membranes, [3H]ketanserin, read-out: Ki 5-HT2A
[7] = intravenous administration, anaesthetized rats
[8] = intravenous administration, anaesthetized rats, extrapolated dose inducing a reduction of the number of contractions >30% in 50% of treated rats, read-out: ED50 (frequency)
[9] = intravenous administration, anaesthetized rats, extrapolated dose inducing 30% reduction of amplitude of the contractions in 50% of treated rats, n.a. = not active, no significant reduction of the height of peaks, read-out: ED50 (amplitude)

T2 sequence (P14842 whole entry): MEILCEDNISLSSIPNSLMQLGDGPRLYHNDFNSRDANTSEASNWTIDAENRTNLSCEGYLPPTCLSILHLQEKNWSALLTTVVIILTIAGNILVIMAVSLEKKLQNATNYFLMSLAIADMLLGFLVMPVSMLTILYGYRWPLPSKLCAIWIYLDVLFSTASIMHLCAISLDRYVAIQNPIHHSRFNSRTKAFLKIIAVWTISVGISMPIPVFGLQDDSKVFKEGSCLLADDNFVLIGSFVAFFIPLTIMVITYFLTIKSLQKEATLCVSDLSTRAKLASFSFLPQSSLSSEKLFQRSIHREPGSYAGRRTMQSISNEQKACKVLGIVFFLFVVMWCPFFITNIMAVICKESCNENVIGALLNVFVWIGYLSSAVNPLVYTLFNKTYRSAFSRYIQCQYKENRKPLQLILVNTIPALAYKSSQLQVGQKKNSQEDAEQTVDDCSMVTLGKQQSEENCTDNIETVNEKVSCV

Structure (SMILES)	Ki [1, 5] [µM]	Ki [2, 6] [µM]	Ki [3] [µM]	ED10min [4, 7] [mg/kg]	ED50 [4, 8] [mg/kg]	also measured
COc1ccccc1N1CCN(CCC(c2ccccc2)c2ccccc2)CC1 [Ex. 1, 1-(3,3-diphenylpropyl)-4-(2-methoxyphenyl)piperazine hydrochloride]	0.0039	0.32	0.145	–	–	–
c1ccc(C(CCN2CCN(c3cccc4c3OCCO4)CC2)c2ccccc2)cc1 [Ex. 2, 1-(3,3-diphenylpropyl)-4-[5-(2,3-dihydro-1,4-benzodioxinyl)]piperazine methanesulphonate]	0.0006	0.159	0.208	–	–	–
COc1ccccc1N1CCN(CCN(c2ccccn2)c2ccccn2)CC1.Cl [Ex. 5, 1-[N-N-bis-(2-pyridyl)-2-aminoethyl]-4-(2-methoxyphenyl)piperazine hydrochloride]	–	–	–	0.523	–	ED50 (frequency) ([4]; intravenous administration, anaesthetized rats, extrapolated dose inducing a reduction of the number of contractions >30% in 50% of treated rats): 0.077 mg/kg
COc1ccccc1N1CCN(CCC(C#N)(c2ccccn2)c2ccccn2)CC1 [Ex. 6, 1-[3-cyano-3,3-bis-(2-pyridyl)propyl]-4-(2-methoxyphenyl)piperazine]	–	–	1.25	0.225	0.093	Ki [1]: 0.0133 µM
COc1ccccc1N1CCN(CCC(C#N)(c2ccccc2)c2ccccn2)CC1.Cl.Cl (stereo not drawn) [Ex. 7, 1-[3-cyano-3-phenyl-3-(2-pyridyl)propyl]-4-(2-methoxyphenyl)piperazine dihydrochloride]	0.0077	–	0.396	0.078	–	ED50 ([4]; iv, read-out: ED50 (frequency)): 0.018 mg/kg; Ki [2]: 0.14 µM
COc1ccccc1N1CCN(CCC(c2ccccn2)c2ccccn2)CC1 [Ex. 8, 1-[3,3-bis-(2-pyridyl)propyl]-4-(2-methoxyphenyl)piperazine]	0.00397	0.32	0.191	0.074	0.0025	–
COc1ccccc1N1CCN(CCC(c2ccccc2)c2ccccn2)CC1 (stereo not drawn) [Ex. 9, 1-[3-phenyl-3-(2-pyridyl)propyl]-4-(2-methoxyphenyl)piperazine]	0.00062	1.02	0.268	0.077	0.025	–
COc1ccccc1N1CCN(CCN(c2ccccn2)c2ccccc2[N+](=O)[O-])CC1 [Ex. 11, 1-[N-(2-nitrophenyl)-N-(2-pyridyl)-2-aminoethyl]-4-(2-methoxyphenyl)-piperazine]	0.00674	–	0.0625	0.162	0.024	–
COc1ccccc1N1CCN(CCC(C#N)(c2ccccc2)c2ccccc2[N+](=O)[O-])CC1 (stereo not drawn) [Ex. 12, 1-[3-cyano-3-(2-nitrophenyl)-3-phenylpropyl]-4-(2-methoxyphenyl)piperazine]	–	0.79	0.226	–	–	Ki [1]: 0.00145 µM
COc1ccccc1N1CCN(CCC(C(N)=O)(c2ccccc2)c2ccccc2[N+](=O)[O-])CC1 (stereo not drawn) [Ex. 13, 1-[3-aminocarbonyl-3-(2-nitrophenyl)-3-phenylpropyl]-4-(2-methoxyphenyl)-piperazine]	–	–	0.365	–	0.084	Ki [1]: 0.0023 µM
COc1ccccc1N1CCN(CCC(C(N)=O)(c2ccccn2)c2ccccc2[N+](=O)[O-])CC1 (stereo not drawn) [Ex. 17, 1-[3-aminocarbonyl-3-(2-nitrophenyl)-3-(2-pyridyl)propyl]-4-(2-methoxyphenyl)-piperazine]	–	–	0.307	–	–	Ki [1]: 0.00518 µM
Cc1c(-c2ccccc2)oc2c(C(=O)OCCN3CCCCC3)cccc2c1=O [Flavoxate, reference compound]	–	–	–	–	–	effect on the amplitude of the bladder contractions (in words) [4, 7]: did not affect the amplitude of the contractions; ED10min ([4]; intravenous administration, anaesthetized rats, in µg/kg): >10000
CN(C)CCCN1c2ccccc2CCc2ccccc21 [Imipramine, reference compound]	–	–	–	> 6	4.93	ED50 [4, 9]: 2.93 mg/kg; effect on the amplitude of the bladder contractions (in words) [4, 7]: did not affect the amplitude of the contractions
CCN(CC)CC#CCOC(=O)C(O)(c1ccccc1)C1CCCCC1 (stereo not drawn) [Oxybutynin, reference compound]	–	–	–	7.77	10	ED50 [4, 9]: 0.24 mg/kg

From patent US6894052B1, “Diarylalkylpiperazines active on the lower urinary tract” (Recordati S.A. Chemical and Pharmaceutical Company, priority 1997, dated 2005)
